Data as given in US8415469B2, “Compounds and methods for kinase modulation, and indications therefor” (Plexxikon Inc., priority 2005, dated 2013).

How the values were obtained:
Type in all cases: biochemical
[1] = biological target: T1, B-Raf (Homo sapiens, UniProt P15056); assay: AlphaScreen kinase assay, B-Raf; settings: read-out: IC50, activity toward kinase B-Raf
T1 construct: purchased Upstate Biotechnology

[2] = biological target: T2, B-Raf V600E (Homo sapiens, UniProt P15056, V600E); assay: AlphaScreen kinase assay, B-Raf V600E; settings: read-out: IC50, activity toward kinase B-Raf V600E
T2 construct: P4254. pFastBacBD-CDC37 BRAF D437-K722-X, V600E; His6 with pFastBac HT leader (TEV site) (N); made in house; host or cells: Sf9 (baculovirus; chaperone CDC37 co-expressed)

[3] = biological target: T3, Btk (Homo sapiens, UniProt Q06187); assay: Z'-Lyte FRET kinase assay (Invitrogen), Btk; settings: read-out: IC50, activity toward kinase Btk
T3 construct: purchased Invitrogen (assay run by Invitrogen)

[4] = biological target: T4, c-Raf-1 (Homo sapiens, UniProt P04049); assay: AlphaScreen kinase assay, c-Raf-1; settings: read-out: IC50, activity toward kinase c-Raf-1
T4 construct: purchased Upstate Biotechnology

[5] = biological target: T5, FGFR1 (Homo sapiens, UniProt P11362, C488A/C584S); assay: AlphaScreen kinase assay, FGFR1; settings: read-out: IC50, activity toward kinase FGFR
T5 construct: P1351.pET N6 BI-PTP FGFR A458-E765-X C488A, C584S; made in house; host or cells: E. coli (PTP1B co-expressed)

[6] = biological target: T6, Fms (Homo sapiens, UniProt P07333); assay: AlphaScreen kinase assay, Fms; settings: read-out: IC50, activity toward kinase Fms
T6 construct: purchased Upstate Biotechnology

[7] = biological target: T7, Jnk1 (Homo sapiens, UniProt P45983); assay: AlphaScreen kinase assay, Jnk1; settings: read-out: IC50, activity toward kinase Jnk1
T7 construct: purchased Upstate Biotechnology

[8] = biological target: T8, Jnk3 (Homo sapiens, UniProt P53779); assay: AlphaScreen kinase assay, Jnk3; settings: read-out: IC50, activity toward kinase Jnk3
T8 construct: purchased Upstate Biotechnology

[9] = biological target: T9, Kit (Homo sapiens, UniProt P10721); assay: AlphaScreen kinase assay, Kit; settings: read-out: IC50, activity toward kinase Kit
T9 construct: P1332.N6 BI PTP KIT M552-K948-X COD; His6 (N); made in house; host or cells: E. coli (PTP1B co-expressed)

[10] = biological target: T10, Met (Homo sapiens, UniProt P08581); assay: AlphaScreen kinase assay, Met; settings: read-out: IC50, activity toward kinase Met
T10 construct: P1818.pETN6 BI-PTP MET G1056-G1364-X WT; His6 (N); made in house; host or cells: E. coli (PTP1B co-expressed)
Method in brief: (§1)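 Here, phosphorylation of a biotin-tagged peptide was sensed by proximity of streptavidin donor and antibody-bearing acceptor beads. Test compounds covered 8 concentrations by 1:3 serial dilution of 20 mM DMSO stocks.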

[11] = biological target: T11, Ret (Homo sapiens, UniProt P07949); assay: AlphaScreen kinase assay, Ret; settings: read-out: IC50, activity toward kinase Ret
T11 construct: P1378.pET-SF BI-PTP RET H661-R1012 HIS; made in house
T11 sequence (P07949 with tags, fused parts or gaps): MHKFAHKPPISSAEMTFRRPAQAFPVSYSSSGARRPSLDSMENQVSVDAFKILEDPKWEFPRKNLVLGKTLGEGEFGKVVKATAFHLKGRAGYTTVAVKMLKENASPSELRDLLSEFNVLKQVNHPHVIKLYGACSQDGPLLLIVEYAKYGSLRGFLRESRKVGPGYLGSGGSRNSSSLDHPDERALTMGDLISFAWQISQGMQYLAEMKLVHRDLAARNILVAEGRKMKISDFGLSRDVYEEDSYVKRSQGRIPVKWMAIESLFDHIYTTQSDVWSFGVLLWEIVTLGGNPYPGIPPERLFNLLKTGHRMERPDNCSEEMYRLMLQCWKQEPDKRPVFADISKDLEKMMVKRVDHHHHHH

[12] = biological target: T12, Src (Homo sapiens, UniProt P12931); assay: AlphaScreen kinase assay, Src; settings: read-out: IC50, activity toward kinase Src
T12 construct: P1144. pET-N6 BI-PTP SRC V86-L536-X; made in house

[13] = biological target: Gsk3β (Homo sapiens, UniProt P49841); assay: AlphaScreen kinase assay, Gsk3β; settings: read-out: IC50, activity toward kinase Gsk3β
Source text: AlphaScreen assay was used to screen additional kinases. The assay is similarly dependent on the phosphorylation of a peptide substrate. In this assay, an antibody that recognizes phosphorylated substrate is bound to an acceptor bead. The peptide substrate is attached to biotin, which binds to a donor head that contains streptavidin. Thus phosphorylated substrate is bound by antibody and streptavidin, bringing the donor and acceptor heads into close proximity when kinase is not inhibited. The donor produces singlet oxygen which results in emission from the acceptor when they are in close proximity. Conversely, when kinase is inhibited, the donor and acceptor beads are not associated and the emission from the acceptor is reduced.
AlphaScreen assays were done using compounds dissolved in DMSO to a concentration of 20 mM. The compounds were diluted accordingly to the desired final concentrations in each sample well, using 1:3 serial dilution for a total of 8 concentration points.

[14] = biological target: T13, Pyk2 (Homo sapiens, UniProt Q14289); assay: AlphaScreen kinase assay, Pyk2; settings: read-out: IC50, activity toward kinase Pyk2
T13 construct: purchased Upstate Biotechnology

[15] = biological target: MAP4K4 (Homo sapiens, UniProt O95819); assay: AlphaScreen kinase assay, MAP4K4; settings: read-out: IC50, activity toward kinase MAP4K4
[16] = biological target: T14, Flt1 (Homo sapiens, UniProt P17948); assay: AlphaScreen kinase assay, Flt1; settings: read-out: IC50, activity toward kinase Flt1
T14 construct: P1826.pETN6 BI-PTP FLT1 M799-D1165-X WT; His6 (N); made in house; host or cells: E. coli (PTP1B co-expressed)
T14 sequence (P17948 with tags, fused parts or gaps): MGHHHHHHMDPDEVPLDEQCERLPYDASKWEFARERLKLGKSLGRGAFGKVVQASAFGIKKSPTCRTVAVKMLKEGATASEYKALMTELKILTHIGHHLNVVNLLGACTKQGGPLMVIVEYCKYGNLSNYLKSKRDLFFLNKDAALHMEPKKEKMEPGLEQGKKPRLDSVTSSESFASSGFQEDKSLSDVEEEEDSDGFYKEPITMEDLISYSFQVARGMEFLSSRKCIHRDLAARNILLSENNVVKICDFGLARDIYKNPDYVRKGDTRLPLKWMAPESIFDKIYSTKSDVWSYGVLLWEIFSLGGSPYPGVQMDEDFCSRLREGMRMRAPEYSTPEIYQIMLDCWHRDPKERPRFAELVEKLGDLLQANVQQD

[17] = biological target: T15, Abl (Homo sapiens, UniProt P00519); assay: AlphaScreen kinase assay, Abl; settings: read-out: activity toward kinase Abl, IC50
T15 construct: P1121. pET-SPEC BI-PTP Abl G227-V515-X; His6 (N); made in house; host or cells: E. coli (PTP1B co-expressed)
T15 sequence (P00519 with tags, fused parts or gaps): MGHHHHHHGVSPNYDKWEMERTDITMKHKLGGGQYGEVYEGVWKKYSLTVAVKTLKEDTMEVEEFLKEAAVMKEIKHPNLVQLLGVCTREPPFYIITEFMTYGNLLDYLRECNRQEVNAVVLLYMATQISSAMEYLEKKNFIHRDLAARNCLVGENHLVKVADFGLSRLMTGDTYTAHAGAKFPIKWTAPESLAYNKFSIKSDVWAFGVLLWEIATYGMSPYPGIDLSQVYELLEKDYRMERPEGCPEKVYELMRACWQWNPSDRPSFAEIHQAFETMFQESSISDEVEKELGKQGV
Method in brief: as §1

[18] = biological target: T16, Kdr (Homo sapiens, UniProt P35968); assay: Z'-Lyte FRET kinase assay (Invitrogen), Kdr; settings: read-out: IC50, activity toward kinase Kdr
T16 construct: purchased Invitrogen (assay run by Invitrogen)

[19] = biological target: T17, Stk6 (Homo sapiens, UniProt O14965); assay: Z'-Lyte FRET kinase assay (Invitrogen), Stk6; settings: read-out: IC50, activity toward kinase Stk6
T17 construct: purchased Invitrogen (Carlsbad, Calif.), screening service
T17 sequence (O14965 1-403): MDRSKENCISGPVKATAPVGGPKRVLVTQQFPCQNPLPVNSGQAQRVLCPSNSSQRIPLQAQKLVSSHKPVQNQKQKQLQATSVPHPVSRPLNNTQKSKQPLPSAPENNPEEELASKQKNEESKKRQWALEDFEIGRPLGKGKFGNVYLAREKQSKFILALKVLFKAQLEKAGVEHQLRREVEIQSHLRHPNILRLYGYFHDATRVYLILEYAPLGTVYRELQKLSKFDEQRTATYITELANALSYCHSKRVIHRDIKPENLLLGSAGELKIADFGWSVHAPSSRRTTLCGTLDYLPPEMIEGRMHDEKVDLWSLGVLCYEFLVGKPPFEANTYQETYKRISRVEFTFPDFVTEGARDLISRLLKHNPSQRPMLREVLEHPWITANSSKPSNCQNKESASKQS

Measured: IC50

T2 sequence (P15056 with tags, fused parts or gaps V600E): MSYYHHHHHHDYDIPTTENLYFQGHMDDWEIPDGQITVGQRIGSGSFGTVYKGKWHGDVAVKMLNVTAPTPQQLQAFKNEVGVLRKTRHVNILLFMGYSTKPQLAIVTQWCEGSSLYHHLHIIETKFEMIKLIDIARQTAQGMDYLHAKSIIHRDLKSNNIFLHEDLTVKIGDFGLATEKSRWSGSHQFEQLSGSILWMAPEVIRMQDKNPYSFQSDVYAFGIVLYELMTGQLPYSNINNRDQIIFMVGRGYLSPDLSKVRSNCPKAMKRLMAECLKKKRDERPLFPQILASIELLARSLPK
T6 sequence (P07333 20-972): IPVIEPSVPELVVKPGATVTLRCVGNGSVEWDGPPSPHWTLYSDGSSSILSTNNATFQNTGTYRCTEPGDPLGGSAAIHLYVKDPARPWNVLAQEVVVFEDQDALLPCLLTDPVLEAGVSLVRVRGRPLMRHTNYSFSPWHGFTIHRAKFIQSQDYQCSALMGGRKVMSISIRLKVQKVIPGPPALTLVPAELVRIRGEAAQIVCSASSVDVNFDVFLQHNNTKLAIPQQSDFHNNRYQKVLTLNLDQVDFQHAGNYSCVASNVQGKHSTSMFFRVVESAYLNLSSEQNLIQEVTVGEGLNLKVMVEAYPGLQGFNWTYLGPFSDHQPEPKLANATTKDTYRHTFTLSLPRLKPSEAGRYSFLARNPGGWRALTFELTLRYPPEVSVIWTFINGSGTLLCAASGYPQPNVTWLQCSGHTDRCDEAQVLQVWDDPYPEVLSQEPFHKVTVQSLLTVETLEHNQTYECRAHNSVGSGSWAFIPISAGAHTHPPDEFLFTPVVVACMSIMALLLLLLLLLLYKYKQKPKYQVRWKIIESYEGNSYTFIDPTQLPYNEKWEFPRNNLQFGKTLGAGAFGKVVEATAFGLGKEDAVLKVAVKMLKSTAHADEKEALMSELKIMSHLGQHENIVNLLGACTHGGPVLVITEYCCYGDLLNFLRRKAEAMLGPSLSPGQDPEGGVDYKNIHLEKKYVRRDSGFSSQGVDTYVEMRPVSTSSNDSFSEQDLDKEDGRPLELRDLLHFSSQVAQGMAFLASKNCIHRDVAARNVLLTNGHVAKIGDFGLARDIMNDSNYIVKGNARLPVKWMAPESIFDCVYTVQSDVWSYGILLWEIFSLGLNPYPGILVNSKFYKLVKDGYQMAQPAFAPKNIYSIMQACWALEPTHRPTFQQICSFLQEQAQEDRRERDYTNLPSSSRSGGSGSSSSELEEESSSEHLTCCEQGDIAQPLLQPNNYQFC
T5 sequence (P11362 458-765 C488A/C584S): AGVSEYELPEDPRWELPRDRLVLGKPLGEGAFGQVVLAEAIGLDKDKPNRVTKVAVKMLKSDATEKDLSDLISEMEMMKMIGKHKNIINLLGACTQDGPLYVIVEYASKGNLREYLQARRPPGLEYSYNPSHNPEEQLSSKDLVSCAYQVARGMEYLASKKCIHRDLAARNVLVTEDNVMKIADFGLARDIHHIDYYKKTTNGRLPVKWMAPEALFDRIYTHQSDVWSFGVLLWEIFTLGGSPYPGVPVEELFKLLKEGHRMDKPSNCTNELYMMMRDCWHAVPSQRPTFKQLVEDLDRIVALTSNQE
T1 sequence (P15056 whole entry): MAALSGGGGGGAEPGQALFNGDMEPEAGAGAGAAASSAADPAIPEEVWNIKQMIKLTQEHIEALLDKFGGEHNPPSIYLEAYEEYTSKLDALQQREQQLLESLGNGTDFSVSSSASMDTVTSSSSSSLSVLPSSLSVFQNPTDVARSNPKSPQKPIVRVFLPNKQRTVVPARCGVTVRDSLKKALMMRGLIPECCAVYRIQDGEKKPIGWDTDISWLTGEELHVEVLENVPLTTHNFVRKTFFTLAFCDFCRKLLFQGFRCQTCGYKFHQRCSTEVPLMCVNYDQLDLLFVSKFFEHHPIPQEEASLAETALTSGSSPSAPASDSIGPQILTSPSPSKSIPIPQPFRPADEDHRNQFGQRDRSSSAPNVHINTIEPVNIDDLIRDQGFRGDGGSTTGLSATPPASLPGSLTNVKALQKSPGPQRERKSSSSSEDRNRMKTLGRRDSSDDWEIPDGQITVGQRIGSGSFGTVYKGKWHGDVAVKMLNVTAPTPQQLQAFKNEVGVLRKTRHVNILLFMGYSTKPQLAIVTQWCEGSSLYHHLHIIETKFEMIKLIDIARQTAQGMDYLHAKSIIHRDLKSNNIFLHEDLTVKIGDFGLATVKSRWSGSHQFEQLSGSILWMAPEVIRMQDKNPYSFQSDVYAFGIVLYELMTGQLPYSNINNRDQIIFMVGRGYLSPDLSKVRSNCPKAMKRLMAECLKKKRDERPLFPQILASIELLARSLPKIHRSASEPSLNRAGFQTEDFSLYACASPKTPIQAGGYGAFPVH
Chain of Gsk3β (P49841 whole entry): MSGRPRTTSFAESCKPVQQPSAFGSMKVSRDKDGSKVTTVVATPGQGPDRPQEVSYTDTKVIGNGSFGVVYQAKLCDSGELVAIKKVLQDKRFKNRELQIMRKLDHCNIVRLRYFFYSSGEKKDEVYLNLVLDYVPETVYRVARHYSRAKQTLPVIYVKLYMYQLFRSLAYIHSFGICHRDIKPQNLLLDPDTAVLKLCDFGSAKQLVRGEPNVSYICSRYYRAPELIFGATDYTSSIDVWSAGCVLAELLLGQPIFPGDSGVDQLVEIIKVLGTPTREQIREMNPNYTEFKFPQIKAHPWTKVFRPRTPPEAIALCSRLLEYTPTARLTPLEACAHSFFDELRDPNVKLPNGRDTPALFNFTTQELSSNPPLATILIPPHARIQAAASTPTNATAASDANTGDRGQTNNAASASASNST
Chain of MAP4K4 (O95819 whole entry): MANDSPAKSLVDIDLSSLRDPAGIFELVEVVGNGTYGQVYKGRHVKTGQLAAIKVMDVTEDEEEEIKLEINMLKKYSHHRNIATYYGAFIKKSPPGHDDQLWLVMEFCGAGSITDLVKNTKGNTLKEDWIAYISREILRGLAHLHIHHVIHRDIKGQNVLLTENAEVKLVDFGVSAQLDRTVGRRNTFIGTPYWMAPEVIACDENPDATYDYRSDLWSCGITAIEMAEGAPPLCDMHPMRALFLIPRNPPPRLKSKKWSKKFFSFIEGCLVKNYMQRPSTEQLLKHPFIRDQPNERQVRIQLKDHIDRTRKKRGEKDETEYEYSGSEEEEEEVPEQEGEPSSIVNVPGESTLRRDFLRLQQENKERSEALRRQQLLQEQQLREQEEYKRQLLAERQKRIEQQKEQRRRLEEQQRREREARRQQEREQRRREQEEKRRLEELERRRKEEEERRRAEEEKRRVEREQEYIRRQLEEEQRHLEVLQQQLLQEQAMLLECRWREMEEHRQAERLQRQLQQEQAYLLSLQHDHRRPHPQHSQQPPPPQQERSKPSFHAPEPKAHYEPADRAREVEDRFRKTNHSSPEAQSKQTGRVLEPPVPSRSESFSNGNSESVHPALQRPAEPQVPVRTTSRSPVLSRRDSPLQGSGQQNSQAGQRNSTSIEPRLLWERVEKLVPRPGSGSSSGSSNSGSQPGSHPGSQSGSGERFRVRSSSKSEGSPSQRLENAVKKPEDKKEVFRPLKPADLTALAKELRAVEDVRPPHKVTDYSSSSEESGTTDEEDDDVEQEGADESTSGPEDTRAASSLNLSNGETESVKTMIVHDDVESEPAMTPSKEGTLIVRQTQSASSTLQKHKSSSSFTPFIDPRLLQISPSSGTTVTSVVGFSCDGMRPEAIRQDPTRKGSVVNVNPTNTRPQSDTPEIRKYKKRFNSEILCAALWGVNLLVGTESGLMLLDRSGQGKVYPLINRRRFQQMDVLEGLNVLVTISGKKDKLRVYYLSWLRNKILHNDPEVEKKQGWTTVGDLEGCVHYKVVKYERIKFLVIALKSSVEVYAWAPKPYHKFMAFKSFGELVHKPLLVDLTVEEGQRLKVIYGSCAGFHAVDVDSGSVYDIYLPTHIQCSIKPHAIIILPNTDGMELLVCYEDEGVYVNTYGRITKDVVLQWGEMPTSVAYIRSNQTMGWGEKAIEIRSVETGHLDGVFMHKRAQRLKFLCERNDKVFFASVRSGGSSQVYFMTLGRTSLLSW
T9 sequence (P10721 with tags, fused parts or gaps): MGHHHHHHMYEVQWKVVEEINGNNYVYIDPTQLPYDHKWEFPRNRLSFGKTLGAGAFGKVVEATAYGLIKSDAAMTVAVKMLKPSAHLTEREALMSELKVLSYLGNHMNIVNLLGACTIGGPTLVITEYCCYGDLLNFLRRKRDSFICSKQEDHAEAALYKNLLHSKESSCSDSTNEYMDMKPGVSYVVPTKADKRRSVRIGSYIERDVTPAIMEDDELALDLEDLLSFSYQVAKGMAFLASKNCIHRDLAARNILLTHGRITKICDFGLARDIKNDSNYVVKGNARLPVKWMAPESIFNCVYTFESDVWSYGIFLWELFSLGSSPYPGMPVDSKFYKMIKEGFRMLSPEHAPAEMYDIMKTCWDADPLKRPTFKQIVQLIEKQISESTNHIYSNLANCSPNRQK
T4 sequence (P04049 whole entry): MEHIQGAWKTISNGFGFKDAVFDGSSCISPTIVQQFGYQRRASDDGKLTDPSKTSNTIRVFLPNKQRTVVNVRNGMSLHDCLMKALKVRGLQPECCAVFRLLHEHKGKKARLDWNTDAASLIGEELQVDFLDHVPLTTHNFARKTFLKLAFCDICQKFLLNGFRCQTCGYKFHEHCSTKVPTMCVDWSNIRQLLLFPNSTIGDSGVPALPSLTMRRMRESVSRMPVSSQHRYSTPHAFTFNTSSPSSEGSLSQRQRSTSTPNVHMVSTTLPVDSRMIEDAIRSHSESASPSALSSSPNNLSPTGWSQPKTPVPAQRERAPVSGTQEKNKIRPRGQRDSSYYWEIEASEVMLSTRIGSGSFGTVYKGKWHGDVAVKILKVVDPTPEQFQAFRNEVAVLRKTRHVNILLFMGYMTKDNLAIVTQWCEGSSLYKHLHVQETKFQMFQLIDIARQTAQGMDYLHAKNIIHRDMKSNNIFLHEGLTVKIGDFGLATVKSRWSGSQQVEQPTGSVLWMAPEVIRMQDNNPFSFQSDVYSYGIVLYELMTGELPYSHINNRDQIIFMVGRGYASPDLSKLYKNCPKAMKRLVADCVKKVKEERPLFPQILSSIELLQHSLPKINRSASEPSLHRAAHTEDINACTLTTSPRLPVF

Nc1ccc(F)c(C(=O)c2c[nH]c3ncc(-c4cccnc4)cc23)c1F [Compound P-0763, (3-amino-2,6-difluoro-phenyl)-(5-pyridin-3-yl-1H-pyrrolo[2,3-b]pyridin-3-yl)-methanone]
not listed: [14] | [15] | [16] | [17] | [18] | [19]
≤ 10 µM: all other assays above

CCS(=O)(=O)Nc1ccc(F)c(C(=O)c2c[nH]c3ncc(-c4cccnc4)cc23)c1F [Compound P-0728, N-[2,4-difluoro-3-(5-pyridin-3-yl-1H-pyrrolo[2,3-b]pyridine-3-carbonyl)-phenyl]-ethanesulfonamide]
≤ 10 µM: [1] | [2] | [4] | [5] | [7] | [14] | [11] | [13] | [15]

CN(C)c1cccc(Nc2ccc3cc[nH]c3n2)c1 [Compound P-1372, N,N-Dimethyl-N′-(1H-pyrrolo[2,3-b]pyridin-6-yl)-benzene-1,3-diamine]
≤ 10 µM: [16] | [6] | [8] | [9] | [14] | [13] | [15]

O=C(c1c(F)ccc(NS(=O)(=O)c2ccccc2)c1F)c1c[nH]c2ncccc12 [Compound P-0913, N-[2,4-Difluoro-3-(1H-pyrrolo[2,3-b]pyridine-3-carbonyl)-phenyl]-benzenesulfonamide]
≤ 10 µM: [1] | [2] | [4] | [5] | [6] | [9] | [13] | [15]

CCCS(=O)(=O)Nc1ccc(F)c(C(=O)c2c[nH]c3ncc(OCC)cc23)c1F [Compound P-1252, Propane-1-sulfonic acid [3-(5-ethoxy-1H-pyrrolo[2,3-b]pyridine-3-carbonyl)-2,4-difluoro-phenyl]-amide]
≤ 10 µM: [1] | [2] | [5] | [6] | [9] | [12] | [13] | [15]

S=C(NCc1ccccn1)NCc1c[nH]c2ncccc12 [Compound P-0169]
≤ 10 µM: [17] | [18] | [19] | [13]
